From patent US20250026777A1, “COCRYSTALS OF NICOTINAMIDE RIBOSIDE SALTS, CRYSTALLINE FORMS, METHODS OF PREPARATION, AND APPLICATIONS THEREOF” (Beiture LLP, priority 2023, published 2025)
Entries after “also recorded” stand apart in the source; their conditions may differ. Where two headings read alike, the source gives them in different places.

Experiments:
[1] = format: physicochemical
Source text: Various solvents are selected based on solubility of starting materials and crystallization methods disclosed herein. […] These differences in solubilities also impact the ratio of the two starting materials. In the disclosed methods to prepare […], a ratio between the nicotinamide riboside chloride salt and resveratrol cofomer from about 2:1 to about 2:2 to prepare [NR—Cl]2[RSV] with a NR—Cl/RSV molar ratio of 2:1.

[2] = Thermal stability by differential scanning calorimetry (DSC); format: physicochemical; conditions: for heat of fusion: DSC; for melting/decomposition endotherm peak: heating rate 10° C./minute
Source text: Thermal stability is the stability of a molecule at elevated temperatures, and a molecule with more thermal stability has more resistance to decomposition at elevated temperatures. Thermal stability of a compound is one of the most important pharmaceutical properties that requires to be considered during developing a pharmaceutical or nutraceutical product. […] Differential Scanning calorimetry (DSC) is an analysis technique by measuring the heat change associated with the molecule's thermal events when heated at a constant rate. The temperature and its enthalpy change (usually the heat of fusion) at a specific thermal event recorded from DSC technique could be used to evaluate the thermal stability of an organic molecule directly. […] It is desirable to identify a new crystalline form with a higher melting/decomposition temperature and/or a larger heat of fusion to improve the thermal stability of the nicotinamide riboside drug substance.
DSC analysis was performed on samples prepared according to standard methods using a Q SERIES™ Q2500 DSC calorimeter available from TA INSTRUMENTS® (New Castle, Delaware). A sample (approximately 2 mg) was weighed into an aluminum sample pan and transferred to the DSC. The instrument was purged with nitrogen at 50 mL/min and data collected between 22° C. and 300° C., using a dynamic heating rate of 10° C./minute. Thermal data was analyzed using standard software, e.g., TRIOS from TA INSTRUMENTS®.

[3] = Hygroscopicity evaluation at about 75% RH (NaCl saturated aqueous solution), visual powder property and polarized light microscopy; format: physicochemical; conditions: for hygroscopicity compared to NR—Cl crystalline forms: compared to NR—Cl-Form A and NR—Cl-Form B; for powder state for more than one month: environment of 75% RH; for powder property after 1 day / powder property after 7 days / powder property and crystallinity after 30 days: ~75% RH, room temperature (~22° C.)
Source text: In addition to the thermal stability, the hygroscopicity, the tendency of a solid substance to absorb moisture from the surrounding atmosphere, is another important physicochemical property that needs to be considered during pharmaceutical development, because, like the heat, the moisture may also damage the drug product at a specific storage condition during the period of the drug shelf life. One of the key disadvantages of the nicotinamide riboside chloride products in the market is its poor hygroscopicity. As reported previously, all the three crystalline forms of the nicotinamide riboside chloride deliquesce at the relative humidity (RH) of 70%-80%. As a result, the nicotinamide riboside chloride requires to store in a dry place to avoid absorbing moisture from the air. […] The hygroscopicity assessment can be achieved by placing compounds in a specified relative humidity environment, e.g., ˜75% RH environment established with the sodium chloride saturated aqueous solution.
A Kerr SureTight™ container of 8 oz Clear Glass Wide Mouth Mason Jars with Silver Vacuum Seal Lid was used to secure the closure. An 8 ml opened vial containing sodium chloride (NaCl) saturated aqueous solution (about 75.5% RH at 20° C. and about 75.3% at 25° C. from www.engineeringtoolbox.com/salt-humidity-d_1887.html) was placed in the SureTight container. The 4 ml of opened vials containing about 5 mg of [NR—Cl]2[RSV] cocrystals or NR—Cl crystalline forms were also placed in the same container with the vial of the NaCl saturated aqueous solution. The container was sealed with the seal lid and placed in a room temperature condition (˜22° C.). The powder property was visually observed directly or during shaking the vial. Crystallinity was assessed under a polarized light microscope.

[4] = NR—Cl crystalline forms, previously identified; cited from earlier work
[5] = Chemical decomposition in alcohol suspension; format: physicochemical
Source text: Reaction crystallization temperatures and times depend upon targeted crystalline form of the cocrystal of a salt that is to be crystallized, the concentration of the salt and coformer in solution, and the solvent system. It should be noted that the elevated temperature or the long reaction time should be avoided to reduce the possibility of chemical decomposition for the […]. […] Even in room temperature, the nicotinamide riboside chloride starts to decompose after stirring in the alcohol suspension for more than 3 days. The preferred reaction time is less than 24 hours with reaction temperature at around room temperature.

Row | Compound | solubility in EtOH [1] | solubility in IPA [1] | solubility in MeOH [1] | solubility in water [1] | heat of fusion [2] [J/g] | melting/decomposition endotherm peak [2] | hygroscopicity compared to NR—Cl crystalline forms [3] | powder state for more than one month [3] | powder property after 1 day [3] | powder property after 7 days [3] | powder property and crystallinity after 30 days [3] | heat of fusion [4] [J/g] | melting/decomposing temperature [4] [°C] | also measured
1 | resveratrol cocrystal of nicotinamide riboside chloride [[NR—Cl]2[RSV]-Form A] |  |  |  |  | 100 | about 128 °C | better hygroscopicity | retain as flowable crystalline powders | flowable powders | flowable powders | flowable crystalline powders |  |  | thermal stability compared to NR—Cl crystalline forms ([2]; from melting/decomposition temperature and heat of fusion): better thermal stability
2 | resveratrol cocrystal of nicotinamide riboside chloride [[NR—Cl]2[RSV]-Form B] |  |  |  |  | 97 | about 127 °C | better hygroscopicity | retain as flowable crystalline powders | flowable powders | flowable powders | flowable crystalline powders |  |  | 
3 | NC(=O)c1ccc[n+]([C@@H]2O[C@H](CO)[C@@H](O)[C@H]2O)c1.[Cl-] [NR—Cl-Form B, nicotinamide riboside chloride] |  |  |  |  |  |  |  |  |  |  | glass-like liquids (amorphous materials) | 69 | 123 | 
4 | NC(=O)c1ccc[n+]([C@@H]2O[C@H](CO)[C@@H](O)[C@H]2O)c1.[Cl-] [NR—Cl-Form A, nicotinamide riboside chloride] |  |  |  |  |  |  |  |  | deliquesced; also recorded: became sticky and could not flow freely | deliquesced | glass-like liquids (amorphous materials) | 58 | 119 | 

The next lines start with results.

Row | solubility in EtOH [1] | solubility in IPA [1] | solubility in MeOH [1] | solubility in water [1] | Compound | heat of fusion [2] [J/g] | melting/decomposition endotherm peak [2] | hygroscopicity compared to NR—Cl crystalline forms [3] | powder state for more than one month [3] | powder property after 1 day [3] | powder property after 7 days [3] | powder property and crystallinity after 30 days [3] | heat of fusion [4] [J/g] | melting/decomposing temperature [4] [°C] | also measured
5 | soluble | soluble | soluble | poorly soluble | Oc1ccc(/C=C/c2cc(O)cc(O)c2)cc1 [resveratrol, 3,5,4′-trihydroxy-trans-stilbene] |  |  |  |  |  |  |  |  |  | 
6 | poorly soluble | poorly soluble | soluble | soluble | NC(=O)c1ccc[n+]([C@@H]2O[C@H](CO)[C@@H](O)[C@H]2O)c1.[Cl-] [nicotinamide riboside chloride] |  |  |  |  |  |  |  |  |  | time within which decomposition occurs in alcohol suspension ([5]; elevated temperature above 50° C.): ≤ 1 h; stirring time after which decomposition starts in alcohol suspension ([5]; room temperature): more than 3 days
